The text below walks through data of patent US5059612A, “Anti-dementia drug” (priority 1989, dated 1991).

The nature of series [1]: mouse acute toxicity test of rolipram. The note with it: in vivo, read-out: ED50 Value (acute toxicity). The text has this:
(§1) The results of mouse acute toxicity test of rolipram are as follows.

The test system of series [2] is mouse. Description: mouse acute toxicity test of rolipram. The note with it: in vivo.
From the text: as §1

Series [3] has as its system mouse in oxygen-short state. The series can be described thus: Activity on survival time of mouse in oxygen-short state. The format is in vivo. The note with it: for Survival Time: 30 minutes before carbon dioxide, Control 195.8 ± 3.7. Here is the method:
Activity on survival time of mouse in oxygen-short state
Mice were put in a plastic box of 150 cm each in length, width and height, and carbon dioxide was injected from a lower inlet at a rate of 500 ml/min. The period from the start of injection to the respiratory standstill of mice was counted as the survival time. (±) Rolipram, (+) rolipram, and (-) rolipram were all intraperitoneally administered to mice 30 minutes before carbon dioxide was loaded.

In series [4] the test system is space recognition disorders induced by scopolamine. The series can be described thus: Test on memory and study of rat using radial maize (scopolamine-induced space recognition disorder). Type of series: in vivo. An excerpt:
Test on memory and study of rat using radial maize
Rats under feed control were put at the central platform (diameter: 25 cm) of an 8-way radial maize (length and width of arm: 48 cm and 10 cm, 40 cm, height from the ground) and trained until they could efficiently take the feed put on the tip of the arm. Numbers of correct choices for the arms where the rats reached for the first time, number of incorrect choices for the arms where the rats reached two or more times and running time until completion of the session were measured for 10 minutes at maximum. When the results with not less than 7 correct choices were shown in 3 continuous sessions it was estimated that acquirement of space recognition was completed. Space recognition disorder was induced in the rats by administering 0.5 mg/kg of scopolamine (i.p., 30 minutes before the session) to study each activity of (±) rolipram, (+) rolipram and (-) rolipram (all administered p.o., 60 minutes before the session).

In series [5] the test system is memory and learning disorders induced by scopolamine. Description: 3-panel runway device: activity against memory and learning disorders induced by scopolamine. Type of series: in vivo, rat. Here is the method:
A 3-panel runway device (length: 175 cm, width: 36 cm and height: 25 cm) comprises a start box, four gateways equipped with three-panel gates and a goal box in which feed are put as the reward. The panel gates were designed so that only one of three panel gates in each gateway might be passable. Training of hungry rats to go out of the start box, reach the goal box and take the feed was made by continuous 6 sessions in 2 minute intervals. The training was carried out every day with the passable panel gate being varied every day. In the test, (1) time taken for the rat to reach the goal box and take the feed after it left the start box, and (2) the number of incorrect choices that the rat made trying to pass the impassable gate were recorded and measured in each session. Rats satisfying for consecutive 3 days the criterion that the total time for 6 sessions in one day was within 60 seconds, the total number of incorrect choices was under 12 and the number of incorrect responses in sessions 2 to 6 was not greater than 8 were estimated to have completely learned. The rats are used for the following test.

Series [6] has as its system cerebral ischemia-induced learning and memory disorders. The series can be described thus: 3-panel runway device: effect on cerebral ischemia-induced learning and memory disorders. The format is in vivo, rat. Particulars: for number of incorrect responses, Session 1 / number of incorrect responses, Session 2 / number of incorrect responses, Session 3 / number of incorrect responses, Session 4 / number of incorrect responses, Session 5 / number of incorrect responses, Session 6: cerebral ischemia; for minimal effective dose: ip, i.p., read-out: dose improving the disorders induced by cerebral ischemia. Here is the method:
A 3-panel runway device (length: 175 cm, width: 36 cm and height: 25 cm) comprises a start box, four gateways equipped with three-panel gates and a goal box in which feed are put as the reward. The panel gates were designed so that only one of three panel gates in each gateway might be passable. Training of hungry rats to go out of the start box, reach the goal box and take the feed was made by continuous 6 sessions in 2 minute intervals. The training was carried out every day with the passable panel gate being varied every day. […] The rats are used for the following test. According to the method of Pulsinelli et al., the both vertebral arteries of rat were burnt and cut under anesthesia with pentobarbital. After 24 hours, the whole carotid artery on both sides was blocked for 5 minutes under no anesthesia.

Series [7] relates to memory and learning deficits. Description: overall conclusion from the experimental results using mice and rats. The format is in vivo.
Setting [8] is: 0.02 mg/kg p.o., 60 minutes before session, + scopolamine 0.5 mg/kg i.p.
[9] abbreviates: 0.1 mg/kg i.p. + scopolamine 0.56 mg/kg.
[10] abbreviates: 10 mg/kg p.o., 60 minutes before session, + scopolamine 0.5 mg/kg i.p.
The mark [11] stands for this setting: 1 mg/kg i.p. + scopolamine 0.56 mg/kg.
Where [12] appears, read: 0.01 mg/kg p.o., 60 minutes before session, + scopolamine 0.5 mg/kg i.p.
Where [13] appears, read: 0.032 mg/kg i.p. + scopolamine 0.56 mg/kg.
The mark [14] stands for this setting: scopolamine alone 0.56 mg/kg i.p.

Where two headings read alike, the source gives them in different places.

For the molecule `COc1ccc(C2CNC(=O)C2)cc1OC1CCCC1` (racemic) [(±) Rolipram], the LD50 in series [1] (ip) was determined as 1500 mg/kg. The LD50 in series [1] (po) turned out to be 4000 mg/kg. Moreover, the safety entry in series [2] was “highly safe”. For the same molecule, the “Survival Time” value in series [3] (1.0 mg/kg i.p.) was found to be 220.3 ± 6.9 s. In addition, the minimal effective dose in series [3] (Mus musculus, ip, mouse, i.p., read-out: dose showing the action of prolonging the survival time) is 1 mg/kg. In series [4] (setting [8]), the “Number of Correct Choice” value was determined as 6.9 ± 0.2 and the “Number of Incorrect Choice” value is recorded as 2.3 ± 1.1. For the same molecule, the minimal effective dose in series [4] (Rattus norvegicus, po, rat, p.o., read-out: dose showing the activity of improving space recognition disorders induced by scopolamine) was determined as 0.02 mg/kg. Moreover, in series [5] (setting [9]), the “number of incorrect responses, Session 1” value was determined as 5.67; the “number of incorrect responses, Session 2” value was 3.00; the “number of incorrect responses, Session 3” value turned out to be 1.67; the “number of incorrect responses, Session 4” value was 1.00. In series [5] (setting [9]), the “number of incorrect responses, Session 5” value is recorded as 1.00 and the “number of incorrect responses, Session 6” value is reported as 1.17. Further, the minimal effective dose in series [5] (Rattus norvegicus, ip, rat, i.p., read-out: dose inhibiting the increase in the number of incorrect responses induced by scopolamine) was found to be 0.1 mg/kg. In series [6] (0.1 mg/kg i.p.), the “number of incorrect responses, Session 1” value is recorded as 4.25; the “number of incorrect responses, Session 2” value came out at 3.00; the “number of incorrect responses, Session 3” value came to 2.88; the “number of incorrect responses, Session 4” value stood at 1.88. In series [6] (0.1 mg/kg i.p.), the “number of incorrect responses, Session 5” value is listed as 1.38 and the “number of incorrect responses, Session 6” value came out at 1.13. In series [6] (rat), the minimal effective dose worked out at 0.1 mg/kg. In addition, in series [7], the “activity of improving memory and learning deficits” value was “showed the activity of improving memory and learning deficits”; the “potency order in improving memory and learning deficits” value (from here on “potency order”) was “more potent order of (-) rolipram, (±) rolipram and (+) rolipram”.

On to `COc1ccc(C2CNC(=O)C2)cc1OC1CCCC1` (single isomer, unassigned; (+)) [(+) Rolipram], for which the LD50 in series [1] (ip) was greater than 2300 mg/kg. Moreover, in series [1] (po), the LD50 was greater than 4000 mg/kg. For the same molecule, the safety result in series [2] is given as “highly safe”. Moreover, the “Survival Time” value in series [3] (3.0 mg/kg i.p.) turned out to be 217.2 ± 5.3 s. Moreover, the “dose showing the action of prolonging the survival time” value in series [3] (mouse, i.p.) is on record as 3.0 mg/kg. In series [4] (setting [10]), the “Number of Correct Choice” value is recorded as 7.2 ± 0.3 and the “Number of Incorrect Choice” value is reported as 2.3 ± 1.6. Also, the “dose showing the activity of improving space recognition disorders induced by scopolamine” value in series [4] (rat, p.o.) is 10 mg/kg. Also, in series [5] (setting [11]), the “number of incorrect responses, Session 1” value was found to be 4.00; the “number of incorrect responses, Session 2” value was 4.17; the “number of incorrect responses, Session 3” value was found to be 3.00; the “number of incorrect responses, Session 4” value came out at 2.00. Moreover, in series [5] (setting [11]), the “number of incorrect responses, Session 5” value is 1.83 and the “number of incorrect responses, Session 6” value is 1.67. Moreover, in series [5] (rat, i.p.), the “dose inhibiting the increase in the number of incorrect responses induced by scopolamine” value is reported as 1 mg/kg. In addition, in series [6] (1 mg/kg i.p.), the “number of incorrect responses, Session 1” value was 5.33; the “number of incorrect responses, Session 2” value turned out to be 3.67; the “number of incorrect responses, Session 3” value was determined as 2.00; the “number of incorrect responses, Session 4” value stood at 2.83. In addition, in series [6] (1 mg/kg i.p.), the “number of incorrect responses, Session 5” value amounted to 1.67 and the “number of incorrect responses, Session 6” value stood at 1.50. For the same molecule, the “improvement of the disorders induced by cerebral ischemia” value in series [6] (rat, 1 mg/kg i.p.) is “no improvement”. Moreover, in series [7], the “activity of improving memory and learning deficits” value was “showed the activity of improving memory and learning deficits”; the “potency order” value is “more potent order of (-) rolipram, (±) rolipram and (+) rolipram”.

Turning to `COc1ccc(C2CNC(=O)C2)cc1OC1CCCC1` (single isomer, unassigned; (-)) [(-) Rolipram], the safety entry in series [2] is “highly safe”. For the same molecule, the “Survival Time” value in series [3] (0.3 mg/kg i.p.) worked out at 219.8 ± 6.3 s. For the same molecule, in series [3] (mouse, i.p.), the “dose showing the action of prolonging the survival time” value amounted to 0.3 mg/kg. In addition, in series [4] (setting [12]), the “Number of Correct Choice” value was 6.9 ± 0.3 and the “Number of Incorrect Choice” value came out at 3.2 ± 1.1. Further, the “dose showing the activity of improving space recognition disorders induced by scopolamine” value in series [4] (rat, p.o.) was found to be 0.01 mg/kg. In series [5] (setting [13]), the “number of incorrect responses, Session 1” value was determined as 4.50; the “number of incorrect responses, Session 2” value worked out at 2.67; the “number of incorrect responses, Session 3” value turned out to be 1.50; the “number of incorrect responses, Session 4” value is 1.50. Moreover, in series [5] (setting [13]), the “number of incorrect responses, Session 5” value stood at 1.17 and the “number of incorrect responses, Session 6” value amounted to 0.50. Also, the “dose inhibiting the increase in the number of incorrect responses induced by scopolamine” value in series [5] (rat, i.p.) came to 0.032 mg/kg. In addition, in series [6] (0.032 mg/kg i.p.), the “number of incorrect responses, Session 1” value stood at 5.50; the “number of incorrect responses, Session 2” value came out at 2.00; the “number of incorrect responses, Session 3” value came to 2.00; the “number of incorrect responses, Session 4” value came to 1.33. In series [6] (0.032 mg/kg i.p.), the “number of incorrect responses, Session 5” value came out at 1.00 and the “number of incorrect responses, Session 6” value was 0.83. Also, the minimal effective dose in series [6] (rat) was determined as 0.032 mg/kg. Moreover, in series [7], the “activity of improving memory and learning deficits” value was “showed the activity of improving memory and learning deficits”; the “potency order” value was “more potent order of (-) rolipram, (±) rolipram and (+) rolipram”.

As for `CN1[C@@H]2C[C@@H](OC(=O)[C@H](CO)c3ccccc3)C[C@H]1[C@@H]1O[C@@H]12` [Scopolamine, scopolamine], in series [4] (scopolamine alone 0.5 mg/kg i.p., Control 0.3 ± 0.1), the “Number of Incorrect Choice” value is given as 7.1 ± 0.9. The “Number of Correct Choice” value in series [4] (scopolamine alone 0.5 mg/kg i.p., Control 7.9 ± 0.2) turned out to be 5.9 ± 0.2. Also, in series [5] (setting [14]), the “number of incorrect responses, Session 1” value stood at 6.21; the “number of incorrect responses, Session 2” value came to 4.74; the “number of incorrect responses, Session 3” value came out at 3.24; the “number of incorrect responses, Session 4” value came to 3.11. Moreover, in series [5] (setting [14]), the “number of incorrect responses, Session 5” value came out at 2.68 and the “number of incorrect responses, Session 6” value worked out at 2.32.
